Format in all cases: nucleic-acid assay
In experiment [1] the test system is Nucleic Acid. The experiment can be described thus: Induction of Escherichia coli pUC19 DNA cleavage assessed as conversion of supercoiled DNA to nicked and linear form of DNA at 10 to 30 uM after 1 hr followed by irradiated for 60 mins by ethidium bromide staining in presence of 1 mol equivalent of copper chloride and 240 mM of potassium chloride.
Experiment [2] relates to Nucleic Acid. The experiment in a line: Inhibition of Escherichia coli pUC19 DNA photocleavage at 10 uM after 1 hr followed by irradiated for 60 mins by ethidium bromide staining in presence of 100 uM of sodium benzoate.
Experiment [3] concerns Nucleic Acid. The experiment can be described thus: Inhibition of Escherichia coli pUC19 DNA photocleavage assessed as conversion of supercoiled DNA to linear form of DNA at 10 uM after 1 hr followed by irradiated for 60 mins by ethidium bromide staining in presence of 100 uM of sodium azide.
The test system of experiment [4] is Calf thymus DNA. The experiment can be described thus: Binding affinity to calf thymus DNA at 10 uM by UV-visible spectra analysis in presence of 1 mol equivalent of copper chloride and 260 mM of potassium chloride. The following applies: Bos taurus.
The test system of experiment [5] is Nucleic Acid. The experiment in a line: Inhibition of Escherichia coli pUC19 DNA photocleavage assessed as conversion of supercoiled DNA to linear form of DNA at 10 uM after 1 hr followed by irradiated for 60 mins by ethidium bromide staining in presence of 100 uM of sodium benzoate.
Experiment [6] deals with Nucleic Acid. The experiment in a line: Induction of Escherichia coli pUC19 DNA cleavage assessed as conversion of supercoiled DNA to nicked and linear form of DNA at 2 to 20 uM irradiated for 50 mins measured after 60 mins by ethidium bromide staining in presence of 1 mol equivalent of copper chloride.
In experiment [7] the test system is Nucleic Acid. The experiment in a line: Induction of Escherichia coli pUC19 DNA cleavage assessed as conversion of supercoiled DNA to nicked and linear form of DNA at 2 to 50 uM after 60 mins by ethidium bromide staining.
Experiment [8] deals with Nucleic Acid. The experiment in a line: Inhibition of Escherichia coli pUC19 DNA photocleavage assessed as conversion of supercoiled DNA to nicked form of DNA at 10 uM after 1 hr followed by irradiated for 60 mins by ethidium bromide staining in presence of 100 uM of sodium azide and 1 mol equivalent of copper chloride.
The test system of experiment [9] is Nucleic Acid. The experiment can be described thus: Induction of Escherichia coli pUC19 DNA cleavage assessed as conversion of supercoiled DNA to nicked and linear form of DNA at 10 to 30 uM after 1 hr followed by irradiated for 60 mins by ethidium bromide staining in presence of 1 mol equivalent of copper chloride and 150 mM sodium chloride.
Experiment [10] has as its system Nucleic Acid. The experiment can be described thus: Inhibition of Escherichia coli pUC19 DNA photocleavage assessed as conversion of supercoiled DNA to nicked form of DNA at 10 uM after 1 hr followed by irradiated for 60 mins by ethidium bromide staining in presence of 100 uM of sodium benzoate.
Experiment [11] deals with Nucleic Acid. The experiment in a line: Inhibition of Escherichia coli pUC19 DNA photocleavage at 10 uM after 1 hr followed by irradiated for 60 mins by ethidium bromide staining in presence of 100 uM of sodium benzoate and 1 mol equivalent of copper chloride.
In experiment [12] the test system is Nucleic Acid. The experiment in a line: Induction of Escherichia coli pUC19 DNA cleavage assessed as conversion of supercoiled DNA to nicked and linear form of DNA at 10 to 30 uM after 1 hr followed by irradiated for 60 mins by ethidium bromide staining in presence of 1 mol equivalent of copper chloride and 150 mM sodium chloride and 240 mM of potassium chloride.

In experiment [13] the test system is Nucleic Acid. The experiment in a line: Inhibition of Escherichia coli pUC19 DNA photocleavage assessed as conversion of supercoiled DNA to linear form of DNA at 10 uM after 1 hr followed by irradiated for 60 mins by ethidium bromide staining in presence of 100 uM of sodium azide and 1 mol equivalent of copper chloride.
For experiment [14], the system named is Nucleic Acid. The experiment can be described thus: Induction of Escherichia coli pUC19 DNA cleavage assessed as conversion of supercoiled DNA to nicked and linear form of DNA at 10 uM irradiated for 50 mins measured after 60 mins by ethidium bromide staining.
Experiment [15] has as its system Nucleic Acid. The experiment in a line: Inhibition of Escherichia coli pUC19 DNA photocleavage at 10 uM after 1 hr followed by irradiated for 60 mins by ethidium bromide staining in presence of 100 uM of sodium azide.
In experiment [16] the test system is Nucleic Acid. The experiment in a line: Inhibition of Escherichia coli pUC19 DNA photocleavage assessed as conversion of supercoiled DNA to nicked form of DNA at 10 uM after 1 hr followed by irradiated for 60 mins by ethidium bromide staining in presence of 100 uM of sodium azide.
Experiment [17] relates to Nucleic Acid. The experiment in a line: Inhibition of Escherichia coli pUC19 DNA photocleavage assessed as conversion of supercoiled DNA to linear form of DNA at 10 uM after 1 hr followed by irradiated for 60 mins by ethidium bromide staining in presence of 100 uM of sodium benzoate and 1 mol equivalent of copper chloride.
The test system of experiment [18] is Calf thymus DNA. The experiment in a line: Binding affinity to calf thymus DNA at 10 uM assessed as change in melting temperature. The following applies: Bos taurus.
The subject of experiment [19] is Calf thymus DNA. The experiment in a line: Binding affinity to calf thymus DNA at 10 uM assessed as change in melting temperature in presence of copper. The following applies: Bos taurus.
Experiment [20] relates to Nucleic Acid. The experiment can be described thus: Inhibition of Escherichia coli pUC19 DNA photocleavage assessed as conversion of supercoiled DNA to nicked form of DNA at 10 uM after 1 hr followed by irradiated for 60 mins by ethidium bromide staining in presence of 100 uM of sodium benzoate and 1 mol equivalent of copper chloride.
Experiment [21] relates to Nucleic Acid. The experiment in a line: Inhibition of Escherichia coli pUC19 DNA photocleavage at 10 uM after 1 hr followed by irradiated for 60 mins by ethidium bromide staining in presence of 100 uM of sodium azide and 1 mol equivalent of copper chloride.

Active and inactive are the calls of the source. The calls are words filed in the database; no cut-off is given here.

Consider `Nc1ccc2cc3ccc(NCc4cccc(CNc5ccc6cc7ccc(N)cc7nc6c5)n4)cc3nc2c1`, for which the result in experiment [1], in experiment [4], in [7], in experiment [9], in experiment [12] and in experiment [14] was Active. Moreover, the inhibition in experiment [2] was 0%; in experiment [3] it was 80%; in experiment [5], 91%; in experiment [8] it was -1%; in experiment [10], -10%; in experiment [11], 0%. The inhibition in [13] is 82%; in experiment [15], 34%; in [16], 29%; in experiment [17] it was 88%; in experiment [20], -7%; in experiment [21], 5%. Moreover, the outcome in experiment [6] was inactive. For the same molecule, the values for the Tm in experiment [18] and in experiment [19] were 79 °C and 80 °C, respectively.

The values are drawn from ChEMBL document CHEMBL1667793, “Synthesis and DNA photocleavage by a pyridine-linked bis-acridine chromophore in the presence of copper(II): ionic strength effects” (Bioorg Med Chem Lett, 2011).
